US7713970B2, “Substituted cyclic urea derivatives” (FMC Corporation, priority 2004, dated 2010)

Test system: tobacco budworm (Heliothis virescens [Fabricius])
Experiment: surface-treated diet test against tobacco budworm
Assay type: in vivo
Details: 0.25 millimolar candidate insecticide on the surface of the diet, second instar larvae, five-day exposure; for Percent Mortality: compared to total number of insects infested; for Percent Growth Inhibition: inhibition of insect weight relative to untreated controls
Description: Candidate insecticides were evaluated for activity against the tobacco budworm (Heliothis virescens [Fabricius]) in a surface-treated diet test.
In this test one mL of molten (65-70° C.) wheat germ-based artificial diet was pipetted into each well of a four by six (24 well) multi-well plate (ID# 430345-15.5 mm dia.×17.6 mm deep; Corning Costar Corp., One Alewife Center, Cambridge, Mass. 02140). The diet was allowed to cool to ambient temperature before treatment with candidate insecticide.
For a determination of insecticidal activity, solutions of the candidate insecticides were prepared for testing using a Packard 204DT Multiprobe® Robotic System (Packard Instrument Company, 800 Research Parkway, Meriden, Conn. 06450), in which the robot first diluted a standard 50 millimolar DMSO solution of candidate insecticide with a 1:1 water/acetone solution (V/V) in a ratio of 1:7 stock solution to water/acetone. The robot subsequently pipetted 40 microliters of the so-prepared solution onto the surface of the diet in each of three wells in the 24 multi-well plate. The process was repeated with solutions of seven other candidate insecticides. Once treated, the contents of the multi-well plate were allowed to dry, leaving 0.25 millimoles of candidate insecticide on the surface of the diet, or a concentration of 0.25 millimolar. Appropriate untreated controls containing only DMSO on the diet surface were also included in this test.
For evaluations of the insecticidal activity of a candidate insecticide at varying rates of application, the test was established as described above using sub-multiples of the standard 50 millimolar DMSO solution of candidate insecticide. For example, the standard 50 millimolar solution was diluted by the robot with DMSO to give 5, 0.5, 0.05, 0.005, 0.0005 millimolar, or more dilute solutions of the candidate insecticide. In these evaluations there were six replicates of each rate of application placed on the surface of the diet in the 24 multi-well plate, for a total of four rates of application of candidate insecticide in each plate.
In each well of the test plate was placed one second instar tobacco budworm larvea, each weighing approximately five milligrams. After the larvae were placed in each well, the plate was sealed with clear polyfilm adhesive tape. The tape over each well was perforated to ensure an adequate air supply. The plates were then held in a growth chamber at 25° C. and 60% relative humidity for five days (light 14 hours/day).
After the five-day exposure period insecticidal activity for each rate of application of candidate insecticide was assessed as percent inhibition of insect weight relative to the weight of insects from untreated controls, and percent mortality when compared to the total number of insects infested.

SMILES	Percent Mortality [%]	Percent Growth Inhibition [%]
COc1ccc(-n2ncc(=O)n(CCCCOc3c(Cl)cc(OCC=C(Cl)Cl)cc3Cl)c2=O)cc1 [Compound 655]	100	100
O=c1n(CCCCOc2c(Cl)cc(OCC=C(Cl)Cl)cc2Cl)cnn1-c1ccc(Br)cc1 [Compound 104]	100	100
O=c1n(CCCCOc2c(Cl)cc(OCC=C(Cl)Cl)cc2Cl)cnn1-c1cccc(Cl)c1 [Compound 75]	100	100
O=c1cnn(-c2ccc(OC(F)F)cc2)c(=O)n1CCCCOc1c(Cl)cc(OCC=C(Cl)Cl)cc1Cl [Compound 656]	100	100
O=c1n(CCCCOc2c(Cl)cc(OCC=C(Cl)Cl)cc2Cl)nnn1-c1ccc(Cl)c(Cl)c1 [Compound 306]	100	100
O=c1cnn(-c2ccccc2)c(=O)n1CCCCOc1c(Cl)cc(OCC=C(Cl)Cl)cc1Cl [Compound 657]	100	100
Cc1nn(-c2ccccc2)c(=O)n1CCCCOc1c(Cl)cc(OCC=C(Cl)Cl)cc1Cl [Compound 110]	100	100
O=c1n(-c2ccc(Cl)cc2)cnn1CCCCOc1c(Cl)cc(OCC=C(Cl)Cl)cc1Cl [Compound 41]	100	100
O=c1n(CCCCOc2c(Cl)cc(OCC=C(Cl)Cl)cc2Cl)cnn1-c1cc(Cl)cc(Cl)c1 [Compound 81]	100	100
O=c1n(CCCCOc2c(Cl)cc(OCC=C(Cl)Cl)cc2Cl)nnn1-c1ccc(C(F)(F)F)cc1 [Compound 293]	100	100
O=c1n(CCCCOc2c(Cl)cc(OCC=C(Cl)Cl)cc2Cl)nnn1Cc1cccc(Cl)c1 [Compound 514]	100	100
O=c1n(CCCCOc2c(Cl)cc(OCC=C(Cl)Cl)cc2Cl)nnn1-c1ccccc1 [Compound 307]	100	100
O=c1n(CCCCOc2c(Cl)cc(OCC=C(Cl)Cl)cc2Cl)nnn1-c1cccc(C(F)(F)F)c1 [Compound 304]	100	100
O=c1cnn(-c2ccc(Cl)c(Cl)c2)c(=O)n1CCCCOc1c(Cl)cc(OCC=C(Cl)Cl)cc1Cl [Compound 647]	100	100
O=c1n(CCCCOc2c(Cl)cc(OCC=C(Cl)Cl)cc2Cl)cnn1-c1cccc(Cl)c1Cl [Compound 76]	100	100
O=c1n(CCCOc2c(Cl)cc(OCC=C(Cl)Cl)cc2Cl)cnn1-c1ccc(C(F)(F)F)cc1 [Compound 106]	100	100
O=c1n(CCCCOc2c(Cl)cc(OCC=C(Cl)Cl)cc2Cl)cnn1-c1ccc(Cl)c(Cl)c1 [Compound 80]	100	100
Cc1nn(-c2ccc(C(C)(C)C)cc2)c(=O)n1CCCCOc1c(Cl)cc(OCC=C(Cl)Cl)cc1Cl [Compound 125]	100	100
Cc1nn(-c2ccc(Cl)cc2)c(=O)n1CCCCOc1c(Cl)cc(OCC=C(Cl)Cl)cc1Cl [Compound 113]	100	100
Cc1nn(-c2ccc(S(=O)(=O)C(F)F)cc2)c(=O)n1CCCCOc1c(Cl)cc(OCC=C(Cl)Cl)cc1Cl [Compound 135]	100	100
CC1(C)Cc2cccc(-n3nnn(CCCCOc4c(Cl)cc(OCC=C(Cl)Cl)cc4Cl)c3=O)c2O1 [Compound 335]	100	100

SMILES	Percent Mortality [%]	Percent Growth Inhibition [%]
Cc1cc(-n2ncn(CCCCOc3c(Cl)cc(OCC=C(Cl)Cl)cc3Cl)c2=O)ccc1Cl [Compound 88]	100	100
O=c1n(CCOc2c(Cl)cc(OCC=C(Cl)Cl)cc2Cl)nnn1-c1cccc(Cl)c1 [Compound 308]	100	100
O=c1n(CCCCOc2c(Cl)cc(OCC=C(Cl)Cl)cc2Cl)nnn1Cc1ccc(Cl)c(Cl)c1 [Compound 520]	0	58
COc1cc(-n2ncc(=O)n(CCCCOc3c(Cl)cc(OCC=C(Cl)Cl)cc3Cl)c2=O)ccc1Cl [Compound 654]	100	100
Cc1ccc(-n2ncn(CCCCOc3c(Cl)cc(OCC=C(Cl)Cl)cc3Cl)c2=O)cc1C [Compound 99]	100	100
O=c1n(CCCCOc2c(Cl)cc(OCC=C(Cl)Cl)cc2Cl)nnn1-c1cc(Cl)cc(Cl)c1 [Compound 299]	100	100
N#Cc1ccc(-n2ncn(CCCCOc3c(Cl)cc(OCC=C(Cl)Cl)cc3Cl)c2=O)cc1 [Compound 89]	100	100
O=c1n(CCCCOc2c(Cl)cc(OCC=C(Cl)Cl)cc2Cl)cnn1-c1ccccc1 [Compound 94]	100	100
O=c1cnn(-c2cc(Cl)cc(Cl)c2)c(=O)n1CCCCOc1c(Cl)cc(OCC=C(Cl)Cl)cc1Cl [Compound 649]	100	100
O=c1n(CCCCOc2c(Cl)cc(OCC=C(Cl)Cl)cc2Cl)cnn1-c1ccc(OC(F)(F)F)cc1 [Compound 97]	100	100
O=c1n(CCCCOc2c(Cl)cc(OCC=C(Cl)Cl)cc2Cl)nnn1Cc1ccc(Cl)cc1Cl [Compound 517]	100	100
Cc1ccc(-n2ncn(CCCCOc3c(Cl)cc(OCC=C(Cl)Cl)cc3Cl)c2=O)cc1Cl [Compound 101]	100	100
O=c1cnn(-c2ccc(F)cc2F)c(=O)n1CCCCOc1c(Cl)cc(OCC=C(Cl)Cl)cc1Cl [Compound 653]	100	100
O=C1CN(CCCCOc2c(Cl)cc(OCC=C(Cl)Cl)cc2Cl)C(=O)N1c1ccc(Cl)cc1 [Compound 576]	100	100
O=c1n(CCCOc2c(Cl)cc(OCC=C(Cl)Cl)cc2Cl)nnn1Cc1ccccc1Cl [Compound 523]	100	100
O=c1n(CCCCOc2c(Cl)cc(OCC=C(Cl)Cl)cc2Cl)nnn1Cc1cc(Cl)cc(Cl)c1 [Compound 521]	100	100
O=c1n(CCCCOc2c(Cl)cc(OCC=C(Cl)Cl)cc2Cl)nnn1Cc1ccccc1Cl [Compound 513]	100	100
O=c1n(CCCCOc2c(Cl)cc(OCC=C(Cl)Cl)cc2Cl)ccn1-c1ccc(Cl)cc1 [Compound 4]	100	100
O=c1cnn(-c2cccc(Cl)c2)c(=O)n1CCCCOc1c(Cl)cc(OCC=C(Cl)Cl)cc1Cl [Compound 650]	100	100
O=c1n(CCCCOc2c(Cl)cc(OCC=C(Cl)Cl)cc2Cl)cnn1-c1ccc(I)cc1 [Compound 90]	100	100
